Data reported in patent publication US5578566A, “KGF receptor-derived antagonists of KGF binding” (The United States of America as represented by the …, priority 1993, dated 1996).
No end group written: not given here.

T1: KGF (Homo sapiens, UniProt P21781)
T1 construct: made in house
T1 sequence (P21781 32-194): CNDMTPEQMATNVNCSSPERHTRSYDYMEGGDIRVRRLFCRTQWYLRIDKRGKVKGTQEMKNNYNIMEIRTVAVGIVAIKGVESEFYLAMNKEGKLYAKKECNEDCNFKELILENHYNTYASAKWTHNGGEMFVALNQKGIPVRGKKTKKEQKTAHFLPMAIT


How the values were obtained:
Solubility in water = type: physicochemical
KGF receptor (KGFR) = target: T2, KGF receptor (KGFR) (Mus musculus, UniProt P21803); test: [125I]-KGF binding to NIH/3T3 cells overexpressing KGFR (competition); details: NIH3T3/KGFR transfectants; read-out: displacement of 50% of the radiolabeled KGF
T2 construct: expressed in transfected cells; host or cells: NIH/3T3
Procedure: Values shown are the mean of triplicate samples. Results are representative of three separate experiments.
[^125 I]-KGF binding to NIH/3T3 cells overexpressing KGFR was measured as described in Bottaro et al., supra. Competition studies were performed with unlabeled KGF or peptides as indicated.

KGF = target: T1, KGF; test: KGF radioimmunoassay: immunoprecipitation of [125I]-KGF by monoclonal antibody 1G4; type: binding
Procedure: Upper Panel: Immunoprecipitation of [^125 I]-KGF competed by KGF, aFGF, aFGF+heparin (30 μg/ml), peptide 412 (SEQ ID NO 2) or peptide 341. Lower Panel: Immunoprecipitation of [^125 I]-KGF competed by KGF, KGF+heparin (1, 10, or 30 μg/ml, as indicated), peptide 412 (SEQ ID NO 2), or peptide 412 (SEQ ID NO 2)+heparin (1, 10, or 30 μg/ml, as indicated). Values are the mean of duplicate samples, expressed as % maximum [^125 I]-KGF bound. Raw values for background and maximum [^125 I]-KGF bound were approximately 300 and 12,000 cpm/sample, respectively. Results are representative of three separate experiments.
[^125 I]-KGF was immunoprecipitated by 1G4 in the presence of unlabeled KGF, aFGF, or peptides as indicated. Briefly, 1G4 (4 ng/ml final concentration), [^125 I]-KGF (30,000 cpm), and appropriate competitors were mixed in 200 μl of buffer containing 10 mM Tris (pH 7.4), 130 mm NaCl, 1 mM EDTA, 10 mM KC1, 1% NP-40, 0.1% SDS, 0.05% Tween-20, and 0.3% nonfat dry milk, and incubated for 24h at 4° C. Antigen-antibody complex was recovered by adding 30 ul (50% suspension) GammaBind-G Sepharose, incubating an additional 30 min at 4° C. (turning gently), and brief centrifugation (5 min at 14,000×g, 4° C.). Pelleted material was washed three times ([…] each) with cold buffer, and radioactivity was measured by gamma counting.

KGF mitogenic activity = details: Ron et al.; cited from earlier work

T2 sequence (P21803 22-707 isoform P21803-2 limits assumed): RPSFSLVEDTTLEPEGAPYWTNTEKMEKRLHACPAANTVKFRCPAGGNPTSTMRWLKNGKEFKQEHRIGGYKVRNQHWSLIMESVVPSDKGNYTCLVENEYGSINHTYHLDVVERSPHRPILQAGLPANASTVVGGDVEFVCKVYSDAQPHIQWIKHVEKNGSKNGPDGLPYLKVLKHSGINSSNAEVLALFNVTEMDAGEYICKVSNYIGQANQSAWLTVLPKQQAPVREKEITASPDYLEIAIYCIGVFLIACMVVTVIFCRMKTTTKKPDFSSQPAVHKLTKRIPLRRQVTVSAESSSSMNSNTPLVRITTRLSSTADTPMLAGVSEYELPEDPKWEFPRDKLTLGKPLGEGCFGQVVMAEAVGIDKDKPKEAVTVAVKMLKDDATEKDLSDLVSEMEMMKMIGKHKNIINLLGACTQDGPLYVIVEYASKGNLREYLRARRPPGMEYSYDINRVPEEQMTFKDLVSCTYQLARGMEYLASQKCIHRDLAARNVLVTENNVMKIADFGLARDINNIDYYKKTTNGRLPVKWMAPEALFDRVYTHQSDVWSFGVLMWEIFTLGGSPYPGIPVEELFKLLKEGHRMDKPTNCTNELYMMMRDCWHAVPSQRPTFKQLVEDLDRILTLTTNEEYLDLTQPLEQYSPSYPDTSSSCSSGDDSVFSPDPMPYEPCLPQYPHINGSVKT

| Molecule | water solubility relative to its highest ED50 (Solubility in water) | IC50 (KGF receptor (KGFR)) | competition / displacement of [125I]-KGF from 1G4 (KGF; KGF RIA) | also measured |
| --- | --- | --- | --- | --- |
| HSGINSSNAEVLALFNVTEM [peptide 367] | approximately 30 fold | ~4 µM |  | solubility (Solubility in water; read-out: limit of solubility in water): 125 µM |
| HSGINSSNAEVLALFNVTEMDAGEY [peptide 412] | > 3000 fold | ~4 µM |  | IC50 (KGF; KGF RIA, read-out: concentration required to achieve 50% displacement of [125I]-KGF from 1G4): ~1 µM; Kd (KGF; consistent with data from receptor binding assay and RIA, read-out: Kd for KGF/peptide interactions): 1 to 2 µM |
| heparin [reference compound] |  |  | had no effect | effect on KGF mitogenesis (KGF mitogenic activity): inhibits KGF mitogenesis |
| aFGF: Acidic FGF purified from bovine brain, from Upstate Biotechnology (protein, UniProt P03968 16-155, looked up) Fibroblast growth factor 1: FNLPLGNYKKPKLLYCSNGGYFLRILPDGTVDGTKDRSDQHIQLQLCAESIGEVYIKSTETGQFLAMDTDGLLYGSQTPNEECLFLERLEENHYNTYISKKHAEKHWFVGLKKNGRSKLGPRTHFGQKAILFLPLPVSSD |  |  | but not aFGF, even at a 1000-fold higher concentration | competition in the KGF RIA with addition of heparin (KGF; heparin 30 μg/ml): did not cause aFGF to compete |
